The values below come from patent US20060171966A1, “Variants of vibrio cholerae 01 biotype e1 tor with attributes of classical biotype” (priority 2002, published 2006).

What all share (type): cell-based, Vibrio cholerae O1
One test deals with V. cholerae O1 Matlab I. Briefly: Sensitivity to polymyxin B (50U), Matlab I. The following applies: 2 strains. The text has this: (§1) […]. The basis of a retrospective examination of these strains was their unusual response to polymyxin B (50U), chicken cell agglutination (CCA), Voges-Proskauer (VP) reaction, and sensitivity to group IV and V phages, all of which are phenotypic traits commonly used to differentiate between the classical and El Tor biotypes. The 24 strains were reexamined for the above phenotypic characteristics by standard procedures.
(§2) We examined the commonly used phenotypic traits used to distinguish between the El Tor and classical biotypes of V. cholerae and differentiated the 24 strains into three types (Table 1), which we classified as Matlab types I, II, and III. Matlab type I included two strains belonging to the Inaba serotype that were resistant to both the El Tor-specific group IV and the classical biotype specific group V phages, negative by the CCA and VP tests (both are classical traits), and resistant to polymyxin B (an El Tor trait).

The subject of the next test is V. cholerae O1 Matlab II. Briefly: Sensitivity to polymyxin B (50U), Matlab II. The following applies: 1 strain.
Text: as §1, §2

The test system of test [1] is V. cholerae O1 Matlab III. Kind of test: Sensitivity to polymyxin B (50U), Matlab III. The following applies: 21 strains.
Text: as §1, §2

For polymyxin B, the “Sensitivity to polymyxin B (50U)” value with V. cholerae O1 Matlab I was “resistant”; in the test with V. cholerae O1 Matlab II, “sensitive”; in test [1] it was “typical of the El Tor biotype”.
